Assay: wn = mass fraction of the nth substance listed
Settings: 100 kPa, Liquid; for viscosity: Concentric cylinders viscometry; for mass density: Vibrating tube method

CCCCCC(=O)[O-].C[N+](C)(C)CCO [2-hydroxy-N,N,N-trimethylethanaminium hexanoate] + O
Settings	mass density, w2 = 0.058 [kg/m3]	mass density, w2 = 0.091 [kg/m3]	mass density, w2 = 0.161 [kg/m3]	mass density, w2 = 0.198 [kg/m3]	viscosity, w2 = 0.058 [mPa·s]	viscosity, w2 = 0.091 [mPa·s]	viscosity, w2 = 0.161 [mPa·s]	viscosity, w2 = 0.198 [mPa·s]
293.15 K	1018	1021	1026	1026	1187.4	640.3	202.1	166.8
298.15 K	1015	1018	1023	1023	831.9	462.6	151.2	125.3
303.15 K	1012	1015	1020	1021	598.1	340.7	114.8	95.6
308.15 K	1009	1012	1017	1018	439	255.5	88.6	74.1
313.15 K	1007	1009	1014	1015	328.4	195.3	69.7	58.4
318.15 K	1004	1006	1011	1012	249.1	150.8	55.1	46.4
323.15 K	1001	1003	1008	1009	192.3	118.4	44.3	37.5
328.15 K	998	1001	1005	1006	150.4	94.1	36.1	30.6
333.15 K	996	998	1003	1003	119.5	76	29.8	25.3
338.15 K	993	995	1000	1000	95.6	61.7	24.7	21
343.15 K	990	992	997	997	77.6	50.7	20.7	17.7
